Experimental data published in patent US5686486A, “4-hydroxy-benzopyran-2-ones and 4-hydroxy-cycloalkyl[b]pyran-2-ones useful to treat retroviral infections” (priority 1995, dated 1997).
Where “and” joins values, the source holds several entries; their conditions need not be identical. Identical values can stand only once. Like-named read-outs stand apart in the source and are kept apart here.

Key:
[1] = target: T1, HIV-1 protease (Human immunodeficiency virus type 1 group M subtype B, UniProt P04585); assay: biochemical; conditions: for inhibition at 0.41 µM: read-out: HIV-1 Protease % Inhib, dose 0.410 uM; for inhibition at 1.23 µM: read-out: HIV-1 Protease % Inhib, dose 1.230 uM; for inhibition at 3.7 µM: read-out: HIV-1 Protease % Inhib, dose 3.700 uM; for inhibition at 11 µM: read-out: HIV-1 Protease % Inhib, dose 11.000 uM; for inhibition at 33 µM: read-out: HIV-1 Protease % Inhib, dose 33.000 uM; for inhibition at 100 µM: read-out: HIV-1 Protease % Inhib, dose 100.000 uM; for inhibition at 0.123 µM: read-out: HIV-1 Protease % Inhib, dose 0.123 uM; for inhibition at 0.37 µM: read-out: HIV-1 Protease % Inhib, dose 0.370 uM; for inhibition at 1.1 µM: read-out: HIV-1 Protease % Inhib, dose 1.100 uM; for inhibition at 3.3 µM: read-out: HIV-1 Protease % Inhib, dose 3.300 uM; for inhibition at 10 µM: read-out: HIV-1 Protease % Inhib, dose 10.000 uM; for inhibition at 30 µM: read-out: HIV-1 Protease % Inhib, dose 30.000 uM; for inhibition at 1 µM: read-out: HIV-1 Protease % Inhib, dose 1.000 uM
Outline: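 Percent inhibition derived from fluorescent cleavage product separated by filtration after streptavidin-bead capture of intact biotin/FITC substrate. Reaction: enzyme (10 μl, 0.1 μM stock) with substrate (20 μl, 0.2 μM stock) and compound, 1 h at room temperature in dark, pH 5.5 acetate buffer with 1.0 M NaCl and 0.05% NP-40.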

[2] = target: T1, HIV-1 protease; assay: biochemical
Experimental: Determination of Ki values utilizes the same materials and equipment employed for percent inhibition studies. Two-fold serial dilutions are made for a given inhibitor from 2, 3 or 4 starting concentrations with a total of 24, 36 or 48 individual inhibitor concentrations. These dilutions are performed utilizing the BioMek robotics system. The assay consists of 10 μL of 40 nM HIV-1 protease, 10 μL of the various inhibitor concentrations, and 20 μL of 200 μM substrate (40 μL total). The reaction is allowed to proceed for 90 min at room temperature, terminated with 40 μL of avidin beads and processed (supra vide). An inhibitor with a known Ki is run in parallel to verify the validity of the assay. The data is processed utilizing a computer program employing a nonlinear least square analysis of the data to generate the Ki values.

Structure (SMILES): CC(C)N=C(Nc1cccc(C(c2c(O)c3c(oc2=O)CCCCCC3)C2CC2)c1)NC(C)C (stereo not drawn) [Example 120, N-(3-(cyclopropyl-(4-hydroxy-2-oxo-5,6,7,8,9,10-hexahydro-2H-cycloocta[b]pyran-3-yl)-methyl)-phenyl)-N',N"-diisopropyl-guanidine]
- inhibition at 0.41 µM [1]: < 10%
- inhibition at 1.23 µM [1]: 22.2%
- inhibition at 3.7 µM [1]: 54.6%
- inhibition at 11 µM [1]: 80.7%
- inhibition at 33 µM [1]: 101%
- inhibition at 100 µM [1]: 106%
- Ki ([2]; read-out: HIV-1 FITC KI): 982 nM

Structure (SMILES): O=c1oc2c(c(O)c1C(c1ccccc1)C1CC1)CCCCCC2CC1CC1 (stereo not drawn) [Example 121, 10-Cyclopropylmethyl-3-(cyclopropyl-phenyl-methyl)-4-hydroxy-5,6,7,8,9,10-hexahydro-cycloocta[b]pyran-2-one]
- inhibition at 0.123 µM [1]: 37.1%
- inhibition at 0.37 µM [1]: 74.9%
- inhibition at 1.1 µM [1]: 99.5%
- inhibition at 3.3 µM [1]: 106%
- inhibition at 10 µM [1]: 108%
- inhibition at 30 µM [1]: 109%
- Ki ([2]; read-out: HIV-1 FITC KI): 24 nM

Structure (SMILES): CCC(c1ccccc1)c1c(O)c2c(oc1=O)C(Cc1ccccc1)CCCCC2 (stereo not drawn) [Example 122]
- inhibition at 0.41 µM [1]: 35.1%
- inhibition at 1.23 µM [1]: 63.5%
- inhibition at 3.7 µM [1]: 91.7%
- inhibition at 11 µM [1]: 98%
- inhibition at 33 µM [1]: 93.2%
- inhibition at 100 µM [1]: 94.3%
- Ki ([2]; read-out: HIV-1 FITC KI): 175 nM

Structure (SMILES): O=c1oc2c(c(O)c1C(C1CC1)C1CC1)CCCCCC2Cc1ccccc1 (stereo not drawn) [Example 123, 10-Benzyl-3-dicyclopropylmethyl-4-hydroxy-5,6,7,8,9,10-hexahydro-cycloocta[b]pyran-2-one]
- inhibition at 0.41 µM [1]: 23.7%
- inhibition at 1.23 µM [1]: 59.1%
- inhibition at 3.7 µM [1]: 82.5%
- inhibition at 11 µM [1]: 88.3%
- inhibition at 33 µM [1]: 83.9%
- inhibition at 100 µM [1]: 78.9%
- Ki ([2]; read-out: HIV-1 FITC KI): 260 nM

Structure (SMILES): CCC(c1ccccc1)c1c(O)c2c(oc1=O)C(CC1CC1)CCC2 (stereo not drawn) [Example 124, 8-Cyclopropylmethyl-4-hydroxy-3-(1-phenyl-propyl)-5,6,7,8-tetrahydro-chromen-2-one]
- inhibition at 0.41 µM [1]: < 10%
- inhibition at 1.23 µM [1]: 32.4%
- inhibition at 3.7 µM [1]: 65.6%
- inhibition at 11 µM [1]: 81.6%
- inhibition at 33 µM [1]: 88.2%
- inhibition at 100 µM [1]: 89.4%
- Ki ([2]; read-out: HIV-1 FITC KI): 1040 nM

Structure (SMILES): O=c1oc2c(c(O)c1C(c1ccccc1)C1CC1)CCCCC2CC1CC1 (stereo not drawn) [Example 125, 9-Cyclopropylmethyl-3-(cyclopropyl-phenyl-methyl)-4-hydroxy-6,7,8,9-tetrahydro-5-H-cyclohepta[b]pyran-2-one]
- inhibition at 0.41 µM [1]: 101%
- inhibition at 1.23 µM [1]: 108%
- inhibition at 3.7 µM [1]: 108%
- inhibition at 11 µM [1]: 108%
- inhibition at 33 µM [1]: 102%
- inhibition at 100 µM [1]: 105%
- Ki ([2]; read-out: HIV-1 FITC KI): 24 nM

Structure (SMILES): CCC(c1ccccc1)c1c(O)c2c(oc1=O)C(C)CCCCC2 (stereo not drawn) [Example 126, 4-Hydroxy-10-methyl-3-(1-phenyl-propyl)-5,6,7,8,9,10-hexahydro-cycloocta[b]pyran-2-one]
- inhibition at 0.41 µM [1]: 25.9%
- inhibition at 1.23 µM [1]: 59%
- inhibition at 3.7 µM [1]: 89.8%
- inhibition at 11 µM [1]: 96.7%
- inhibition at 33 µM [1]: 100%
- inhibition at 100 µM [1]: 95%
- Ki ([2]; read-out: HIV-1 FITC KI): 331 nM

Structure (SMILES): CCC1CCCCCc2c1oc(=O)c(C(c1ccccc1)C1CC1)c2O (stereo not drawn) [Example 127, 3-(Cyclopropyl-phenyl-methyl)-10-ethyl-4-hydroxy-5,6,7,8,9,10-hexahydro-cycloocta[b]pyran-2-one]
- inhibition at 0.123 µM [1]: 52.3%
- inhibition at 0.37 µM [1]: 92.5%
- inhibition at 1.1 µM [1]: 112%
- inhibition at 3.3 µM [1]: 115%
- inhibition at 10 µM [1]: 117%
- inhibition at 30 µM [1]: 111%
- Ki ([2]; read-out: HIV-1 FITC KI): 33 nM

Structure (SMILES): CCCC1CCCCCc2c1oc(=O)c(C(c1ccccc1)C1CC1)c2O (stereo not drawn) [Example 128, 3-(Cyclopropyl-phenyl-methyl)-4-hydroxy-10-propyl-5,6,7,8,9,10-hexahydro-cycloocta[b]pyran-2-one]
- inhibition at 0.123 µM [1]: 32.5%
- inhibition at 0.37 µM [1]: 85.6%
- inhibition at 1.1 µM [1]: 102%
- inhibition at 3.3 µM [1]: 112%
- inhibition at 10 µM [1]: 107%
- inhibition at 30 µM [1]: 102%
- Ki ([2]; read-out: HIV-1 FITC KI): 26 nM

Structure (SMILES): CCCCC1CCCCCc2c1oc(=O)c(C(c1ccccc1)C1CC1)c2O (stereo not drawn) [Example 129, 10-Butyl-3-(cyclopropyl-phenyl-methyl)4-hydroxy-5,6,7,8,9,10-hexahydro-cycloocta[b]pyran-2-one]
- inhibition at 0.123 µM [1]: 23.2%
- inhibition at 0.37 µM [1]: 67.8%
- inhibition at 1.1 µM [1]: 96.5%
- inhibition at 3.3 µM [1]: 106%
- inhibition at 10 µM [1]: 117%
- inhibition at 30 µM [1]: 120%
- Ki ([2]; read-out: HIV-1 FITC KI): 31 nM

Structure (SMILES): O=c1oc2c(c(O)c1C(c1ccccc1)C1CC1)CCCCCC2CC1CCCCO1 (stereo not drawn) [Example 130, 3-(Cyclopropyl-phenyl-methyl)-4-hydroxy-10-(tetrahydro-pyran-2-ylmethyl)-5,6,7,8,9,10-hexahydro-cycloocta[b]pyran-2-one]
- inhibition at 0.37 µM [1]: 14.7%
- inhibition at 1.1 µM [1]: 54%
- inhibition at 3.3 µM [1]: 88.6%
- inhibition at 10 µM [1]: 104%
- inhibition at 30 µM [1]: 112%
- Ki ([2]; read-out: HIV-1 FITC KI): 119 nM

Structure (SMILES): CC(C)CC1CCCCCc2c1oc(=O)c(C(c1ccccc1)C1CC1)c2O (stereo not drawn) [Example 131, 3-(Cyclopropyl-phenyl-methyl)-4-hydroxy-10-isobutyl-5,6,7,8,9,10-hexahydro-cycloocta[b]pyran-2-one]
- inhibition at 0.123 µM [1]: 30.7%
- inhibition at 0.37 µM [1]: 74.2%
- inhibition at 1.1 µM [1]: 98.7%
- inhibition at 3.3 µM [1]: 112%
- inhibition at 10 µM [1]: 116%
- inhibition at 30 µM [1]: 106%
- Ki ([2]; read-out: HIV-1 FITC KI): 30 nM

Structure (SMILES): CC(C)CCC1CCCCCc2c1oc(=O)c(C(c1ccccc1)C1CC1)c2O (stereo not drawn) [Example 132, 3-(Cyclopropyl-phenylmethyl)-4-hydroxy-10-(3-methyl-butyl)-5,6,7,8,9,10-hexahydro-cycloocta[b]pyran-2-one]
- inhibition at 0.37 µM [1]: 39.5%
- inhibition at 1.1 µM [1]: 76.2%
- inhibition at 3.3 µM [1]: 98.1%
- inhibition at 10 µM [1]: 104%
- inhibition at 30 µM [1]: 103%
- Ki ([2]; read-out: HIV-1 FITC KI): 50 nM

Structure (SMILES): O=c1oc2c(c(O)c1C(c1ccccc1)C1CC1)CCCCCC2CC1CCOC1 (stereo not drawn) [Example 133, 3-(Cyclopropyl-phenyl-methyl)-4-hydroxy-10-(tetrahydro-furan-3-ylmethyl)-5,6,7,8,9,10-hexahydro-cycloocta[b]pyran-2-one]
- inhibition at 0.123 µM [1]: 19.1%
- inhibition at 0.37 µM [1]: 71.2%
- inhibition at 1.1 µM [1]: 97.9%
- inhibition at 3.3 µM [1]: 101%
- inhibition at 10 µM [1]: 101%
- inhibition at 30 µM [1]: 99.5%
- Ki ([2]; read-out: HIV-1 FITC KI): 12 nM

Structure (SMILES): CCC(O)C1CCCCCc2c1oc(=O)c(C(c1ccccc1)C1CC1)c2O (stereo not drawn) [Example 134, 3-(Cyclopropyl-phenyl-methyl)-4-hydroxy-10-(1-hydroxy-propyl)-5,6,7,8,9,10-hexahydro-cycloocta[b]pyran-2-one]
- inhibition at 0.123 µM [1]: 54%
- inhibition at 0.37 µM [1]: 97.7%
- inhibition at 1.1 µM [1]: 104%
- inhibition at 3.3 µM [1]: 111%
- inhibition at 10 µM [1]: 111%
- inhibition at 30 µM [1]: 109%
- Ki ([2]; read-out: HIV-1 FITC KI): 15 nM

Structure (SMILES): C=CCCC1CCCCc2c1oc(=O)c(C(c1ccccc1)C1CC1)c2O (stereo not drawn) [Example 135, 9-But-3-enyl-3-(cyclopropyl-phenyl-methyl)4-hydroxy-6,7,8,9-tetrahydro-5H-cyclohepta[b]pyran-2-one]
- inhibition at 0.41 µM [1]: 87.1%
- inhibition at 1.23 µM [1]: 92.5%
- inhibition at 3.7 µM [1]: 96.7%
- inhibition at 11 µM [1]: 82.4%
- inhibition at 33 µM [1]: 71.2%
- inhibition at 100 µM [1]: 63.6%
- Ki ([2]; read-out: HIV-1 FITC KI): 30 nM

Structure (SMILES): O=c1oc2c(c(O)c1C(Cc1ccccc1)Cc1ccccc1)CCCCCC2 [Example 136, 3-(1-Benzyl-2-phenyl-ethyl)-4-hydroxy-5,6,7,8,9,10-hexahydro-cycloocta[b]pyran-2-one]
- inhibition at 0.41 µM [1]: 56.6%
- inhibition at 1.23 µM [1]: 80.1%
- inhibition at 3.7 µM [1]: 90.1%
- inhibition at 11 µM [1]: 92.4%
- inhibition at 33 µM [1]: 91.6%
- inhibition at 100 µM [1]: 103%
- Ki ([2]; read-out: HIV-1 FITC KI): 108 nM

Structure (SMILES): C=CS(=O)(=O)Nc1cccc(C(CC)c2c(O)c3ccccc3oc2=O)c1 (stereo not drawn) [Example 137, Ethenesulfonic acid (3-(1-(4-hydroxy-2-oxo-2H-chromen-3-yl)-propyl)-phenyl)-amide]
- inhibition at 1 µM [1]: 11.3%
- inhibition at 10 µM [1]: 62.9%
- inhibition at 100 µM [1]: 89.1%
- Ki ([2]; HIV-1 FITC KI): 1750 nM and 2200 nM

Structure (SMILES): CCC(c1cccc(NS(=O)(=O)CC)c1)c1c(O)c2ccccc2oc1=O (stereo not drawn) [Example 138, Ethanesulfonic acid (3-(1-(4-hydroxy-2-oxo-2H-chromen-3-yl)-propyl)-phenyl)-amide]
- inhibition at 1 µM [1]: 11.9%
- inhibition at 10 µM [1]: 64.5%
- inhibition at 100 µM [1]: 99.3%
- Ki ([2]; HIV-1 FITC KI): 2350 nM

Structure (SMILES): CCC(c1cccc(NS(=O)(=O)CCN2C(=O)c3ccccc3C2=O)c1)c1c(O)c2ccccc2oc1=O (stereo not drawn) [Example 139, 2-(1,3-Dioxo-1,3-dihydro-isoindol-2-yl)-ethanesulfonic acid(3-(1-(4-hydroxy-2-oxo-2H-chromen-3-yl)-propyl)-phenyl)amide]
- inhibition at 1 µM [1]: 36.6%
- inhibition at 10 µM [1]: 80.7%
- inhibition at 100 µM [1]: 99.2%
- Ki ([2]; HIV-1 FITC KI): 500 nM
